The text below walks through data of PubChem BioAssay AID200 (DTP/NCI, 2004).

In the assay the test system is B6C3F1 mice, B16 melanoma ip, median survival T/C. The experiment in a line: NCI In Vivo Anticancer Drug Screen. Data for tumor model B16 Melanoma (intraperitoneal) in B6C3F1 mice. The note with it: endpoint: median survival time, higher = longer survival. As to the method: The antitumor activity of compounds was measured in mice bearing transplantable tumors. Survival or tumor size were measured and the results are expressed as the measurement made in the treated group (T) divided by the measurement made in the vehicle treated control group (C). The tumor model used in this assay is B16 Melanoma (intraperitoneal) in B6C3F1 mice

The mark [1] stands for this setting: dose: 0.78 mg/kg/injection, schedule: Q01DX009 (ip), vehicle: saline with Tween-80.
Setting [2] is: dose: 1.56 mg/kg/injection, schedule: Q01DX009 (ip), vehicle: saline with Tween-80.
Where [3] appears, read: dose: 12.5 mg/kg/injection, schedule: Q01DX009 (ip), vehicle: saline with Tween-80.
Where [4] appears, read: dose: 100.0 mg/kg/injection, schedule: Q01DX009 (ip), vehicle: Klucel (hydroxypropylcellulose) (HPC).
Where [5] appears, read: dose: 200.0 mg/kg/injection, schedule: Q01DX009 (ip), vehicle: Klucel (hydroxypropylcellulose) (HPC).
[6] abbreviates: dose: 3.13 mg/kg/injection, schedule: Q01DX009 (ip), vehicle: saline with Tween-80.
The mark [7] stands for this setting: dose: 6.25 mg/kg/injection, schedule: Q01DX009 (ip), vehicle: saline with Tween-80.
Setting [8] is: dose: 25.0 mg/kg/injection, schedule: Q01DX009 (ip), vehicle: saline with Tween-80.
The mark [9] stands for this setting: dose: 50.0 mg/kg/injection, schedule: Q01DX009 (ip), vehicle: saline with Tween-80.
Setting [10] is: dose: 100.0 mg/kg/injection, schedule: Q01DX009 (ip), vehicle: saline with Tween-80.
Setting [11] is: dose: 200.0 mg/kg/injection, schedule: Q01DX009 (ip), vehicle: saline with Tween-80.
[12] abbreviates: dose: 400.0 mg/kg/injection, schedule: Q01DX009 (ip), vehicle: saline with Tween-80.
[13] abbreviates: dose: 12.5 mg/kg/injection, schedule: Q01DX009 (ip), vehicle: saline.
Where [14] appears, read: dose: 25.0 mg/kg/injection, schedule: Q01DX009 (ip), vehicle: saline.
[15] abbreviates: dose: 50.0 mg/kg/injection, schedule: Q01DX009 (ip), vehicle: saline.

The structures appear in SMILES notation. “And” between values parts separate entries of the source, which are not always exact repeats. Identical values can stand only once. Toxic doses and inconclusive results are not listed. Where a SMILES comes first, the peptide text is derived from it. [ ]: non-standard residue; d: D form. The star is where a group is joined. Cbz = O=C(OCc1ccccc1)*; Nva = CCC[CH](N)C(=O)O

Take `O=NN(CCCl)C(=O)NCCCl`: the T/C runs as follows: (dose: 1.5 mg/kg/injection, schedule: Q01DX009 (ip), vehicle: alcohol) 112 % of control and 118 % of control; (dose: 1.5 mg/kg/injection, schedule: Q01DX009 (ip), vehicle: other) 108 % of control; (dose: 3.0 mg/kg/injection, schedule: Q01DX009 (ip), vehicle: other) 116 % of control; (dose: 5.0 mg/kg/injection, schedule: Q01DX005 (iv), vehicle: saline + alcohol) 107 % of control; (dose: 6.0 mg/kg/injection, schedule: Q01DX009 (ip), vehicle: alcohol) 184 % of control; (dose: 6.0 mg/kg/injection, schedule: Q01DX009 (ip), vehicle: other) 154 % of control. For the same compound, the T/C is, setting by setting: (dose: 10.0 mg/kg/injection, schedule: Q01DX001 (ip), vehicle: saline + alcohol) 120 % of control; (dose: 10.0 mg/kg/injection, schedule: Q01DX001 (ip), vehicle: saline) 111 % of control and 120 % of control; (dose: 10.0 mg/kg/injection, schedule: Q01DX001 (iv), vehicle: saline + alcohol) 104 % of control; (dose: 10.0 mg/kg/injection, schedule: Q01DX005 (iv), vehicle: saline + alcohol) 124 % of control; (dose: 12.0 mg/kg/injection, schedule: Q01DX009 (ip), vehicle: other) 110 % of control; (dose: 20.0 mg/kg/injection, schedule: Q01DX001 (ip), vehicle: saline + alcohol) 154 % of control. In addition, the T/C reads like this: (dose: 30.0 mg/kg/injection, schedule: Q01DX001 (ip), vehicle: saline) 156 % of control; (dose: 40.0 mg/kg/injection, schedule: Q01DX001 (ip), vehicle: saline + alcohol) 175 % of control; (dose: 40.0 mg/kg/injection, schedule: Q01DX001 (iv), vehicle: saline + alcohol) 185 % of control.
Regarding `CC(C)(C)N1CC1CNC(=O)C(=O)NCC1CN1C(C)(C)C` (stereo not given), the T/C under setting [1] is 99 % of control; the T/C under setting [2] is 101 % of control; the T/C (dose: 3.12 mg/kg/injection, schedule: Q01DX009 (ip), vehicle: saline with Tween-80) is 109 % of control; the T/C under setting [3] is 150 % of control.
With `CCCC(NC(=O)CNC(=O)CNC(=O)OCc1ccccc1)C(=O)O` (stereo not given) (HELM PEPTIDE1{[O=C(OCc1ccccc1)[*:2]].G.G.[CCCC(N[*:1])C(=O)O]}$$$$V2.0), the T/C was 105 % of control under setting [4]; 103 % of control under setting [5]; 112 % of control (dose: 400.0 mg/kg/injection, schedule: Q01DX009 (ip), vehicle: Klucel (hydroxypropylcellulose) (HPC)).
For the compound `Cn1c2c(c3ccccc3c1=O)C(=O)c1ccccc1-2`, the T/C reads like this: under setting [6], 114 % of control; under setting [7], 105 % of control; under setting [3], 98 % of control and 101 % of control; under setting [8], 104 % of control; under setting [9], 96 % of control; under setting [10], 102 % of control. The T/C runs as follows: under setting [11], 94 % of control; under setting [12], 88 % of control.
`COC(=O)[C@@]12OC[C@]34[C@H]([C@@H](O)[C@@H]1O)[C@@]1(C)CC(=O)C(O)=C(C)[C@@H]1C[C@H]3OC(=O)[C@H](OC(=O)/C=C(/C)C(C)(C)O)[C@@H]24`: the T/C was 104 % of control (dose: 0.25 mg/kg/injection, schedule: Q01DX009 (ip), vehicle: saline + alcohol); 110 % of control and 117 % of control (dose: 0.5 mg/kg/injection, schedule: Q01DX009 (ip), vehicle: saline + alcohol); 119 % of control (dose: 1.0 mg/kg/injection, schedule: Q01DX009 (ip), vehicle: saline + alcohol).
For the compound `O=C(NC(CSSCC(NC(=O)c1ccccc1)C(=O)O)C(=O)O)c1ccccc1` (stereo not given), the T/C was 109 % of control under setting [9], 108 % of control under setting [10], 106 % of control under setting [11] and 100 % of control under setting [12].
On to `CC(C)n1cnc2c(Cl)ncnc21`, for which the T/C by setting is: under setting [8], 88 % of control; under setting [9], 104 % of control; under setting [10], 87 % of control.
In the case of `CCOC(=O)c1c[nH]c2oc(/C=N/N3CC(CN4CCOCC4)OC3=O)cc2c1=O` (stereo not given), the T/C reads like this: under setting [13], 112 % of control; under setting [14], 118 % of control; under setting [15], 117 % of control.
For `O=C(Nc1nncs1)c1cccs1`, the T/C reads like this: under setting [3], 110 % of control; under setting [8], 105 % of control; under setting [9], 101 % of control; under setting [10], 108 % of control and 106 % of control; under setting [11], 121 % of control and 104 % of control.
In the case of `CCCC(NC(=O)OCc1ccccc1)C(=O)NC(C(=O)O)C(C)CC` (stereo not given) (Cbz-[Nva]-Ile-OH; configuration not given here), the T/C runs as follows: under setting [4], 101 % of control; under setting [5], 109 % of control.
In the case of `NNC(=S)N/N=C/c1ccccn1`, the T/C is 91 % of control (dose: 1.56 mg/kg/injection, schedule: Q01DX009 (ip), vehicle: saline); 117 % of control (dose: 1.56 mg/kg/injection, schedule: Q01DX009 (ip), vehicle: suspension in saline); 109 % of control (dose: 3.12 mg/kg/injection, schedule: Q01DX009 (ip), vehicle: saline); 113 % of control (dose: 3.12 mg/kg/injection, schedule: Q01DX009 (ip), vehicle: suspension in saline); 94 % of control (dose: 6.25 mg/kg/injection, schedule: Q01DX009 (ip), vehicle: saline); 102 % of control (dose: 6.25 mg/kg/injection, schedule: Q01DX009 (ip), vehicle: suspension in saline). Also, the T/C was 105 % of control under setting [13]; 113 % of control (dose: 12.5 mg/kg/injection, schedule: Q01DX009 (ip), vehicle: suspension in saline); 98 % of control under setting [14].
`O=NNc1cccnc1`: the T/C is, setting by setting: (dose: 6.25 mg/kg/injection, schedule: Q01DX009 (ip), vehicle: water) 107 % of control; (dose: 12.5 mg/kg/injection, schedule: Q01DX009 (ip), vehicle: water) 121 % of control; (dose: 25.0 mg/kg/injection, schedule: Q01DX009 (ip), vehicle: water) 111 % of control; (dose: 50.0 mg/kg/injection, schedule: Q01DX009 (ip), vehicle: water) 100 % of control; (dose: 100.0 mg/kg/injection, schedule: Q01DX009 (ip), vehicle: water) 107 % of control.
Take `NCC(=O)NC(CC(N)=O)C(=O)O` (stereo not given) (HELM PEPTIDE1{G.[NC(=O)CC(N[*:1])C(=O)O]}$$$$V2.0): the T/C is, setting by setting: under setting [15], 98 % of control; (dose: 100.0 mg/kg/injection, schedule: Q01DX009 (ip), vehicle: saline) 91 % of control; (dose: 200.0 mg/kg/injection, schedule: Q01DX009 (ip), vehicle: saline) 93 % of control.
`NC(=O)c1ccc(N)nc1`: the T/C is 113 % of control (dose: 0.5 mg/kg/injection, schedule: Q01DX009 (ip), vehicle: saline); 119 % of control (dose: 1.0 mg/kg/injection, schedule: Q01DX009 (ip), vehicle: saline); 117 % of control (dose: 2.0 mg/kg/injection, schedule: Q01DX009 (ip), vehicle: saline).
As to `Cn1c(=O)c2c(nc(CCCCc3nc4c(c(=O)n(C)c(=O)n4C)n3C)n2C)n(C)c1=O`, the T/C under setting [1] was 91 % of control, the T/C under setting [2] was 109 % of control, the T/C under setting [6] is 93 % of control and the T/C under setting [7] is 93 % of control.
Take `O=C1NC(=O)C2(CCC(C3CCCCC3)CC2)N1` (stereo not given): the T/C is, setting by setting: (dose: 50.0 mg/kg/injection, schedule: Q01DX009 (ip), vehicle: Klucel (hydroxypropylcellulose) (HPC)) 87 % of control; under setting [4], 89 % of control; under setting [5], 89 % of control.
For `N#Cc1ccc(NC(=O)Nc2nncs2)cc1`, the T/C under setting [3] was 120 % of control and 105 % of control; the T/C under setting [8] is 118 % of control and 107 % of control; the T/C under setting [9] is 111 % of control.
